pIC50: −log10 of the molar value.
Target: T1, Cytochrome P450 1A2 (Homo sapiens, UniProt P05177)
T1 sequence (P05177 whole entry): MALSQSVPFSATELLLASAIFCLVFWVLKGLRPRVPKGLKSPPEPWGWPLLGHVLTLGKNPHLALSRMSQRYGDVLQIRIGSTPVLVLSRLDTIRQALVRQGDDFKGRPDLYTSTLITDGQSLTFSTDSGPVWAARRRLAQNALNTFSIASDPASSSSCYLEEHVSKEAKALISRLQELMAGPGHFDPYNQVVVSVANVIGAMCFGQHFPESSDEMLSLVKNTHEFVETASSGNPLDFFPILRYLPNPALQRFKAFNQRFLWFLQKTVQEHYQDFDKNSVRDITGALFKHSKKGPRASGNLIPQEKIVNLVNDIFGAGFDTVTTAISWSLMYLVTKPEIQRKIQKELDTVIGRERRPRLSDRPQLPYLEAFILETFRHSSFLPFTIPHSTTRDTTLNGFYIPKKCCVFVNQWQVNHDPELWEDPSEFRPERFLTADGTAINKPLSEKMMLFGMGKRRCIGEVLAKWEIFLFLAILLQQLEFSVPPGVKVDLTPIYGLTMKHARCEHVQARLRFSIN
Test: Inhibitory concentration against recombinant human cytochrome P450 1A2
Details: not given

| Structure (SMILES) | pIC50 |
| --- | --- |
| Cc1cc2ccccc2cn1 | 4.68 |
| O=C1CCC(c2ccccc2)O1 (stereo unspecified) | 2.64 |
| Clc1cccc2ccccc12 | 4.30 |
| CCc1ccc2ccccc2c1 | 4.72 |
| Fc1ccc2ccccc2c1 | 4.31 |
| Cc1cccc2c(C)cccc12 | 4.38 |
| c1ccc(-c2ccccc2)cc1 [BIPHENYL] | 3.80 |
| Oc1ccc2ccccc2c1 [BETANAPHTHOL] | 4.77 |
| Cc1cc(C)c2ccccc2n1 | 5.62 |
| Cc1ccc(C)c2ccccc12 | 5.44 |
| Clc1ccccc1-c1ccccc1 | 3.64 |
| Cc1ccc2c(C)cccc2c1 | 4.60 |
| Cc1ccc2ccccc2n1 [QUINALDINE] | 4.40 |
| CCCCc1ccccc1 [BUTYLBENZYL] | 2.43 |
| CCC1CCC(=O)O1 (stereo unspecified) | 2.00 |
| Clc1ccc(-c2ccccc2)cc1 | 4.31 |
| Oc1cccc2ccccc12 [1-NAPHTHOL] | 5.49 |

| Structure (SMILES) | pIC50 |
| --- | --- |
| COc1ccc(C=O)cc1 | 3.57 |
| Cc1ccc2ccc(C)cc2c1 | 4.19 |
| CN1C(=O)CCC1c1cccnc1 (single isomer, unassigned) [COTININE] | 2.27 |
| Cc1ccc2cccc(C)c2c1 | 5.12 |
| CN1CCC[C@@H]1c1cccnc1 [R-NICOTINE] | 2.39 |
| c1ccc2c(c1)CCC2 | 3.26 |
| CCCCC1CCCCC1 [BUTYLCYCLOHEXANE] | 4.26 |
| Cc1ccc2cc(C)ccc2c1 | 4.28 |
| O=c1[nH]c2ccccc2o1 [BENZOXAZOLINONE] | 3.43 |
| c1ccc2ccccc2c1 | 3.15 |
| Cc1cccc2ccccc12 | 3.96 |
| Cc1ccc(CCN)cc1 | 4.85 |
| Cc1ccc2ccccc2c1 | 3.92 |
| O=C1Cc2ccccc2O1 | 3.59 |
| Cc1cc(C)oc(=O)c1 | 2.35 |
| Cc1cnc2ccccc2c1 | 4.89 |
| c1ccc2c(c1)CCO2 | 2.92 |

Same assay, conditions: human, recombinant human CYP1A2

| Structure (SMILES) | IC50 [µM] |
| --- | --- |
| O=C1CCCCCO1 | > 40000 |
| COC1=CC(=O)OC1 | > 40000 |

Source: ChEMBL document CHEMBL1144444, “Predictive three-dimensional quantitative structure-activity relationship of cytochrome P450 1A2 inhibitors” (J Med Chem, 2005)
